Reference: patent publication US10328003B2, “Solubilizing agents for active or functional organic compounds” (ISP INVESTMENTS LLC, priority 2015, dated 2019)
Each block holds one molecule with its values, some of them ahead of it.

Legend:
[1] = Procedure: (§1) Different samples of the current solubilizing compound cycloalkyl toluate was combined with available sunscreens Escalol S, avobenzone and oxybenzone at 25° C. […] Solubility was checked for cyclohexyl ester in various sunscreen actives such as bemotrizinol, ethylhexyl triazone, avobenzone & benzophenone-3 in comparison to phenethyl benzoate.
[2] = Comparison of solubilizers combined with sunscreens: clear solution or crystal formation; format: physicochemical; conditions: 25° C., FIG. 6
Procedure: as §1

Solubility @ 25° C. Avobenzone [1]: 25
Solubility @ 25° C. Escalol S [1]: 36
Solubility @ 25° C. Oxybenzone [1]: 32
Solubility of Avobenzone at 25° C. [1]: 25%
Solubility of Escalol S at 25° C. [1]: 36%
Solubility percentages of sunscreen active in the solubilizer [1]: 22-33%
Molecule: Cyclohexyl Toluate

Solubility of Escalol S at 25° C. [1]: 36%
Molecule: Cc1ccc(C(=O)OC2CCCCC2)cc1 [Cyclohexyl 4-Toluate]

Solubility of Escalol S at 25° C. [1]: 34%
Molecule: Cc1cccc(C(=O)OC2CCCC2)c1 [Cyclopentyl 3-Toluate]

Solubility of Escalol S at 25° C. [1]: 35%
Molecule: Cc1cccc(C(=O)OC2CCCCC2)c1 [Cyclohexyl 3-Toluate]

Solubility @ 25° C. Avobenzone [1]: 20
Solubility @ 25° C. Escalol S [1]: 22
Solubility @ 25° C. Oxybenzone [1]: 34
Solution appearance when combined with Escalol S, avobenzone and oxybenzone [2]: crystal formations
Molecule: O=C(OCCc1ccccc1)c1ccccc1 [Phenethyl benzoate, 2-phenylethyl benzoate, reference compound]

Solubility of Escalol S at 25° C. [1]: 30%
Molecule: Cc1cccc(C(=O)OCC2CCCCC2)c1 [Cyclohexylmethanol 3-Toluate]

Solubility of Escalol S at 25° C. [1]: 37%
Molecule: Cc1ccccc1C(=O)OC1CCCCC1 [Cyclohexyl 2-Toluate]
